{"source": "ChEMBL document CHEMBL3232861", "about": "“Metabolites of antroquinonol found in rat urine following oral administration” (J Nat Prod, 2014)", "type_in_all_cases": "ADME, organism-based", "design_in_all_cases": "dose 200 mg/kg, route oral", "settings_in_all_cases": "in vivo", "key": {"[1]": {"test": "Drug excretion in Wistar rat urine treated with antroquinonol at 200 mg/kg, po administered via gavage measured after 24 hrs by HPLC-SPE-TT-NMR analysis"}, "[2]": {"test": "Drug excretion in Wistar rat urine assessed as (E)-6-((1R,2R ,6R)-2,5-Dihy droxy-4-methoxy-6-methyl-3-oxocyclo-hex-4-enyl)-4-methylhex-3-enoic acid level at 200 mg/kg, po administered via gavage measured after 24 hrs by HPLC-SPE-TT-NMR analysis"}, "[3]": {"test": "Drug excretion in Wistar rat urine assessed as (E)-6-((1R,2R,6R)-2-Hydroxy-3,4-dimethoxy-6-methyl-5-oxocyclo-hex-3-enyl)-4-methylhex-4-enoic acid level at 200 mg/kg, po administered via gavage measured after 24 hrs by HPLC-SPE-TT-NMR analysis"}, "[4]": {"test": "Drug excretion in Wistar rat urine assessed as (E)-6-((1R,2R ,6R)-2,5-Dihy droxy-4-methoxy-6-methyl-3-oxocyclo-hex-4-enyl)-4-methylhex-4-enoic acid level at 200 mg/kg, po administered via gavage measured after 24 hrs by HPLC-SPE-TT-NMR analysis"}, "[5]": {"test": "Drug excretion in Wistar rat urine assessed as (E)-6-((1R,2R,6R)-2-Hydroxy-3,4-dimethoxy-6-methyl-5-oxocyclo-hex-3-enyl)-4-methylhex-3-enoic acid level at 200 mg/kg, po administered via gavage measured after 24 hrs by HPLC-SPE-TT-NMR analysis"}}}
{"molecule": "COC1=C(OC)[C@H](O)[C@H](C/C=C(\\C)CCC(=O)O)[C@@H](C)C1=O", "values": [{"measurement": "Drug excretion", "setting": "[1]", "result": "metabolite_detected"}]}
{"molecule": "COC1=C(OC)[C@H](O)[C@H](CC/C(C)=C/CC(=O)O)[C@@H](C)C1=O", "values": [{"measurement": "Drug excretion", "setting": "[1]", "result": "metabolite_detected"}]}
{"molecule": "COC1=C(O)[C@H](C)[C@@H](CC/C(C)=C/CC(=O)O)[C@@H](O)C1=O", "values": [{"measurement": "Drug excretion", "setting": "[1]", "result": "metabolite_detected"}]}
{"molecule": "COC1=C(O)[C@H](C)[C@@H](C/C=C(\\C)CCC(=O)O)[C@@H](O)C1=O", "values": [{"measurement": "Drug excretion", "setting": "[1]", "result": "metabolite_detected"}]}
{"molecule": "COC1=C(OC)[C@H](O)[C@H](C/C=C(\\C)CC/C=C(\\C)CCC=C(C)C)[C@@H](C)C1=O", "note": "[ANTROQUINONOL]", "values": [{"measurement": "Drug excretion", "setting": "[2]", "result": "metabolite_detected"}, {"measurement": "Drug excretion", "setting": "[3]", "result": "metabolite_detected"}, {"measurement": "Drug excretion", "setting": "[4]", "result": "metabolite_detected"}, {"measurement": "Drug excretion", "setting": "[5]", "result": "metabolite_detected"}]}
